How the values were obtained:
I.C.R. Swiss albino mice [1] = assay: Chemical analgesia, acetic acid writhing technique; format: in vivo; conditions: 25mg/kg, intraperitoneal; for No. of writhes, mean ± S.E.M.: 20 minutes after acetic acid; for analgesic activity, acetic acid writhing (in words): compared with dextropropoxyphene; for Significance of differences vs Dextropropoxyphene: No. of writhes
Protocol: The analgesic effect was studied on I.C.R. Swiss albino mice with the acetic acid writhing technique. Batches of 10 mice were made.
The products under study were administered intraperitoneally and after 30 minutes 0.25 ml of 1% acetic acid are injected intraperitoneally. A batch of control animals which only receive acetic acid is used. The number of writhes in each mouse is counted 20 minutes after administration of the acetic acid.

I.C.R. Swiss albino mice [2] = assay: Thermal analgesia, hot plate technique at 55° C.; format: in vivo; conditions: 50mg/kg, intraperitoneal; for Jumping time, mean ± S.E.M.: 30 minutes; for thermal analgesic activity (in words): compared with dextropropoxyphene / control
Protocol: The thermal analgesic effect was studied on I.C.R. Swiss albino mice. The hot plate technique was used at 55° C. Batches of 10 mice were made.
The products under study were administered intraperitoneally and after 30 minutes the mice were placed on the hot plate, counting the number of seconds they took to jump. Batches of control animals which are only injected with distilled water are used.

[3] = Acute toxicity (LD50, Litchfield-Wilcoxon test); conditions: mouse, in vivo, ip; intraperitoneal; deaths counted 48 hours after treatment; fasted mice
Protocol: Acute toxicity studies were performed on I.C.R. Swiss albino mice of both sexes weighing 30±2 g, kept fasting for 24 hours prior to the experiment. The room temperature and relative humidity were kept constant. The products were administered intraperitoneally, counting the number of deaths 48 hours after the treatment. The calculation of lethal dose 50 (LD50) was made by the Litchfield-Wilcoxon test.

[4] = Table VI, Control 109.9 ± 6.362
[5] = Table VII, Control 109.9 ± 6.362
[6] = Table III, Control 48.8 ± 5.033

CCC(=O)O[C@](Cc1ccccc1)(c1ccccc1)[C@H](C)CN(C)C [Dextropropoxyphene, dextropropoxyphene, reference compound]
No. of writhes, mean ± S.E.M. (I.C.R. Swiss albino mice [1]; Table V, Control 101.4 ± 8.973): 21.5 ± 5.929
No. of writhes, mean ± S.E.M. (I.C.R. Swiss albino mice [1]; [4]): 27.8 ± 8.365
No. of writhes, mean ± S.E.M. (I.C.R. Swiss albino mice [1]; [5]): 27.8 ± 8.365
Jumping time, mean ± S.E.M. (I.C.R. Swiss albino mice [2]; Table II, Control 64 ± 7.919): 164 ± 7.319 s
Jumping time, mean ± S.E.M. (I.C.R. Swiss albino mice [2]; [6]): 91.3 ± 7.894 s
Jumping time, mean ± S.E.M. (I.C.R. Swiss albino mice [2]; Table IV, Control 48.8 ± 5.033): 91.3 ± 7.894 s

CC1=CC(Cc2csc3ccccc23)N(C)CC1 (stereo not drawn) [Product III, 2-(3-benzo[b]thienylmethyl)-1,4-dimethyl-1,2,5,6-tetrahydropyridine]
analgesic activity, acetic acid writhing (in words) (I.C.R. Swiss albino mice [1]): not significantly different from that of dextropropoxyphene
No. of writhes, mean ± S.E.M. (I.C.R. Swiss albino mice [1]; [5]): 22.5 ± 6.263
Significance of differences vs Dextropropoxyphene (I.C.R. Swiss albino mice [1]; Table VII): N.S.
LD50 at 48 h [3]: 275 mg/kg
thermal analgesic activity (in words) (I.C.R. Swiss albino mice [2]): lacking thermal analgesic activity
Jumping time, mean ± S.E.M. (I.C.R. Swiss albino mice [2]; Table IV, Control 48.8 ± 5.033): 48.9 ± 5.292 s

CC1=CCN(C)C(Cc2csc3ccccc23)C1 (stereo not drawn) [Product II, 2-(3-benzo[b]thienylmethyl)-1,4-dimethyl-1,2,3,6-tetrahydropyridine]
analgesic activity, acetic acid writhing (in words) (I.C.R. Swiss albino mice [1]): not significantly different from that of dextropropoxyphene
No. of writhes, mean ± S.E.M. (I.C.R. Swiss albino mice [1]; [4]): 41.2 ± 6.024
Significance of differences vs Dextropropoxyphene (I.C.R. Swiss albino mice [1]; Table VI): N.S.
LD50 at 48 h [3]: 916 mg/kg
thermal analgesic activity (in words) (I.C.R. Swiss albino mice [2]): lacking thermal analgesic activity
Jumping time, mean ± S.E.M. (I.C.R. Swiss albino mice [2]; [6]): 63 ± 8.368 s

CN1CCC2(C)CC1Cc1c2sc2ccccc12 (racemic) [Product I, 2,5-dimethyl-benzo[b]thieno[2,3-f]morphan]
analgesic activity, acetic acid writhing (in words) (I.C.R. Swiss albino mice [1]): greater analgesic activity then dextropropoxyphene
No. of writhes, mean ± S.E.M. (I.C.R. Swiss albino mice [1]; Table V, Control 101.4 ± 8.973): 3.1 ± 1.234
LD50 at 48 h [3]: 35.2 mg/kg
thermal analgesic activity (in words) (I.C.R. Swiss albino mice [2]): analgesic activity which is not significantly different from that of dextropropoxyphene
Jumping time, mean ± S.E.M. (I.C.R. Swiss albino mice [2]; Table II, Control 64 ± 7.919): 168.67 ± 11.334 s
Significance of differences vs Dextropropoxyphene (I.C.R. Swiss albino mice [2]; Table II, jumping time): N.S.
